Test results as given in patent US9364496B2 (ONCOGENEX TECHNOLOGIES INC., priority 2013, dated 2016).
Values joined by “and” are separate entries in the source; they are usually repeats but may differ in a detail not shown here. Identical values can stand only once. Oligonucleotides are written 5' to 3', each unit as a sugar letter and its base; * is a phosphorothioate linkage, no mark a phosphodiester; rarer units and linkages stand in square brackets, end groups in braces. Plain capitals give the bases only. e = 2'-O-(2-methoxyethyl) (MOE); [5mC] = 5-methylcytosine; d = 2'-deoxy (DNA)

Test system: RPMI 8226 (human myeloma) xenograft
Assay: In vivo activity of custirsen with Velcade, RPMI 8226 xenograft (Example 14)
Details: for Day 41 Δ % (weight) / Day 41 Δ volume / Day 41 Δ weight / Day 45 Δ % (weight) / Day 45 Δ volume / Day 45 Δ weight / Day 27 Δ % (weight) / Day 27 Δ volume / Day 27 Δ weight / Day 34 Δ % (weight) / Day 34 Δ volume / Day 34 Δ weight: vs Day 20; for weight / Δ weight / volume / Δ volume / % of baseline / Δ %: later day (day not given); for volume / Δ volume: tumor; for % of baseline / Δ %: weight
Protocol: The cells were implanted subcutaneously into female SCID mice with 7×10^6 cells inoculum.
Tumors and body weights were measured weekly until termination of the study on day 71. Response to treatment was evaluated for tumor growth inhibition (TGI) and tumor growth delay (TGD).
70 CB.17 SCID female mice, 4-6 weeks old, 16-20 grams, obtained from Harlan animal breeding center.
Sample from the cell suspension was taken for counting (0.3 ml in duplicates for CEDEX) before spun down. Cell viability was 85.6% and live cell concentration was 167×10^5 cells/ml. The pellet was resuspended in HBSS to a final volume of 8 ml.
Tumors were implanted subcutaneously with RPMI-8226 cells into the right flank of the mouse on Day 0. Each animal received a s.c. injection 7×10^6 cells in 0.1 ml suspension. On day 20, mice were sorted by the optimal tumor volume ([…]) and were allocated into 5 groups of 10 mice. Mice were individually tagged and their tumor volume and body weight were monitored weekly during the study. Tumor size was measured by caliper and calculated using the formula: […]
The treatment started on […] (0.2 ml per 20 grams v/w) and continued till day 52, after which the remaining mice were left for observation until day 71.

[1] = OGX 40 ip qd*5, twk, group Mean, n 9
[2] = OGX 40 ip qd*5, twk, group Mean, n 10
[3] = OGX 40 ip qd*5, twk, individual mouse, listed as OGX
[4] = OGX 40 ip qd*5, twk, group mean

Custirsen: anti-clusterin antisense oligonucleotide CAGCAGCAGAGTCTTCATCAT, phosphorothioate backbone, 2′-O-methoxyethyl at nucleotides 1-4 and 18-21, 5-methylcytosines at 1, 4, 19 (antisense e[5mC]*eA*eG*e[5mC]*dA*dG*dC*dA*dG*dA*dG*dT*dC*dT*dT*dC*dA*eT*e[5mC]*eA*eT; listed as Homo sapiens)
Day 45 volume [1]: 527.3
Day 45 weight [1]: 19.9
Day 41 Δ % (weight) [1]: 1.5%
Day 41 Δ volume [1]: 249.9
Day 41 Δ weight [1]: 0.3
Day 45 Δ % (weight) [1]: 5.6%
Day 45 Δ volume [1]: 381.9
Day 45 Δ weight [1]: 1.0
Day 20 volume [2]: 142.8
Day 20 weight [2]: 18.5
Day 27 % of baseline (weight) [2]: 102.6%
Day 27 volume [2]: 219.2
Day 27 weight [2]: 19.0
Day 34 % of baseline (weight) [2]: 95.3%
Day 34 volume [2]: 263.1
Day 34 weight [2]: 17.7
Day 27 Δ % (weight) [2]: 2.6%
Day 27 Δ volume [2]: 76.4
Day 27 Δ weight [2]: 0.4
Day 34 Δ % (weight) [2]: −4.7%
Day 34 Δ volume [2]: 120.3
Day 34 Δ weight [2]: −0.8
Day 20 volume [3]: 119 and 124 and 125 and 139 and 141 and 145 and 151 and 155 and 162 and 169
Day 20 weight [3]: 16.1 and 17.7 and 17.1 and 20.6 and 19.7 and 18.6 and 18.4 (2×) and 20.0 and 18.9
Day 27 % of baseline (weight) [3]: 113.2% and 102.5% and 100.3% and 98.7% and 102.4% and 101.7% and 100.5%
Day 27 volume [3]: 96 and 207 and 171 and 249 and 222 and 246 and 319 and 193 and 217 and 271
Day 27 weight [3]: 18.2 (2×) and 18.0 and 20.8 and 19.7 and 18.4 and 18.9 and 20.3 and 18.6 and 19.0
Day 34 % of baseline (weight) [3]: 84.3% and 98.1% and 99.6% and 94.5% and 97.3% and 96.5% and 98.9% and 95.3% and 93.3% and 95.4%
Day 34 volume [3]: 98 and 244 and 223 and 257 and 305 and 336 and 371 and 220 and 266 and 312
Day 34 weight [3]: 13.5 and 17.4 and 17.1 and 19.5 and 19.1 and 18.0 (2×) and 18.2 and 19.0 and 17.2
Day 41 % of baseline (weight) [3]: 100.4% and 100.3% and 99.5% and 95.8% and 100.1% and 104.4% and 101.6%
Day 41 volume [3]: 454 and 474 and 560 and 267 and 320 and 457 and 410 and 295 and 322
Day 41 weight [3]: 19.8 and 18.7 and 19.5 and 19.9 and 17.6 and 18.9 and 18.8 and 17.9 and 20.9
Day 45 % of baseline (weight) [3]: 104.1% and 102.7% and 111.4% and 101.5% and 108.1% and 109.8%
Day 45 volume [3]: 587 and 584 and 826 and 467 and 428 and 490 and 511 and 272 and 579
Day 45 weight [3]: 20.5 and 19.1 (2×) and 20.6 and 21.1 and 18.7 and 19.2 and 18.8 and 21.9
Day 27 Δ % (weight) [3]: 13.2% and 2.5% and 4.8% and 1.1% and 0.3% and −1.3% and 2.4% and 1.7% and 0.8% and 0.5%
Day 27 Δ volume [3]: −23.1 and 84.0 and 46.2 and 110.4 and 81.2 and 100.3 and 168.8 and 38.8 and 55.3 and 102.6
Day 27 Δ weight [3]: 2.1 and 0.4 (2×) and 0.8 and 0.2 (2×) and 0.1 (2×) and −0.3 and 0.3
Day 34 Δ % (weight) [3]: −15.7% and −1.9% and −0.4% and −5.5% and −2.7% and −3.5% and −1.1% and −4.7% and −6.7% and −4.6%
Day 34 Δ volume [3]: −20.6 and 120.3 and 97.9 and 117.8 and 163.9 and 190.8 and 219.9 and 65.4 and 104.3 and 142.9
Day 34 Δ weight [3]: −2.5 and −0.3 and −0.1 and −1.1 and −0.5 and −0.6 and −0.2 and −0.9 (2×) and −1.2
Day 41 Δ % (weight) [3]: 0.4% and 0.3% and 5.9% and −0.5% and −4.2% and 0.1% and 6.0% and 4.4% and 1.6%
Day 41 Δ volume [3]: 313.0 and 328.4 and 409.6 and 112.3 and 157.8 and 288.2 and 286.2 and 170.4 and 183.5
Day 41 Δ weight [3]: 0.1 (2×) and 1.1 (2×) and −0.1 and −0.8 and 0.0 and 0.8 and 0.3
Day 45 Δ % (weight) [3]: 4.1% and 2.7% and 11.4% and 5.6% and 1.5% and 1.3% and 8.1% and 9.8% and 6.1%
Day 45 Δ volume [3]: 446.1 and 439.0 and 675.2 and 313.0 and 266.0 and 321.7 and 388.0 and 147.2 and 440.5
Day 45 Δ weight [3]: 0.8 and 0.5 and 2.1 and 1.1 and 0.3 and 0.2 and 1.4 and 1.7 and 1.3
weight [4]: 20.5
Δ weight [4]: 1.6
volume [4]: 1717.4
Δ volume [4]: 1572.6
% of baseline [4]: 108.3%
Δ % [4]: 8.3%
weight [3]: 21.04 and 22.19 and 19.81 and 20.11
Δ weight [3]: 1.4 (2×) and 2.2 and 1.2
volume [3]: 2185 and 1918 and 1519 and 2426
Δ volume [3]: 2043.7 and 1763.0 and 1357.1 and 2257.1
% of baseline [3]: 106.9% and 111.2% and 107.7% and 106.4%
Δ % [3]: 6.9% and 11.2% and 7.7% and 6.4%
mice died (custirsen 40 mg/kg group, day 34): one
injections given before treatment was stopped due to toxicity (custirsen 40 mg/kg, both groups (5 consecutive + 2 on the next week)): 7 injections
tumor growth inhibition by the end of the study (custirsen 40 mg/kg, either alone or in combination): significantly inhibited tumor growth
